# Reference: US6878715B1, “Therapeutic compounds for inhibiting interleukin-12 signals and method for using same” (Cell Therapeutics, Inc., priority 1994, dated 2005)
# System: IL-12 induced Th1 differentiation (splenic T cells)
# Experiment: IL-12 dependent in vitro T-helper cell (Th1) differentiation assay, IFN-γ production upon secondary anti-CD3 stimulation
# Format: cell-based
# Conditions: read-out: IC50, inhibition of IL-12 induced Th1 differentiation as defined by IFN-γ production
# Protocol: This example illustrates the inventive compounds' ability to suppress Th1 differentiation in vitro by blocking IL-12 signalling. Each of compounds A through Y were tested in an IL-12 dependent in vitro T-helper cell differentiation assay as described in LeGross et al., J. Exp. Med., 172:921-929 (1990). Recombinant IL-12 was used to induce Th1 differentiation. Spenic T cells were purified utilizing the antibodies RA3-3A1/6.1 (anti-B220), J11d and MAR18.5 (anti-rat kappa chain) to deplete the B cells via complement mediated toxicity following the procedure set forth in Klaus et al., J. Immunol., 149:1867-1875 (1992). Splenic T cells were stimulated at 5×10^5/ml with insoluble anti-CD3 alone (145-2C11, Pharmingen, San Diego, Calif.), or anti-CD3 and 5 U/ml IL-12, with and without each inventive compound. After seven days, equal numbers of viable cells were restimulated for 24 hours with anti-CD3 without the inventive compounds, and the supernatants were collected and assayed for IFN-γ production. IFN-γ and IL-4 levels were measured by Interest kits from Genzyme specific for IFN-γ and IL-4.
# Th1 differentiation was induced by culturing anti-CD3 stimulated T cells in the presence of exogenous IL-12. […] The values in the “IC50 μM” column were determined by measuring the inhibition of IL-121 induced Th1 differentiation as defined by IFN-γ production upon secondary stimulation with anti-CD3 alone. None of the compounds affected the viability or recovery of T cells after one week of culture.
row,Compound,IC50 [µM]
1,"CNc1nc2c([nH]1)c(=O)n(CCCC[C@@H](C)O)c(=O)n2C [CT12447, (R)-1-(5-hydroxyhexyl)-3-methyl-8-methylaminoxanthine]",25
2,"C[C@@H](O)CCCCn1c(=O)c2[nH]c(=O)[nH]c2n(C)c1=O [CT12452, (R)-1-(5-hydroxyhexyl)-3-methyluric acid]",35

# Same assay, conditions: splenic T cells, anti-CD3 and 5 U/ml IL-12, seven days with compound, restimulated 24 hours with anti-CD3 alone, read-out: IC50, inhibition of IL-12 induced Th1 differentiation as defined by IFN-γ production
row,Compound,IC50 [µM]
1,"C[C@@H](O)CCCCn1c(=O)n(C)c(=O)c2c1ncn2C [CT11495, (R)-3-(5-Hydroxyhexyl)-1,7-dimethylxanthine]",35
2,"C[C@@H](O)CCCCn1c(=O)c2[nH]c(CN)nc2n(C)c1=O [CT12440, (R)-8-Aminomethyl-1-(5-hydroxyhexyl)-3-methylxanthine]",9
3,"CNc1nc2c(c(=O)n(CCCC[C@@H](C)O)c(=O)n2C)n1C [CT12481, (R)-3,7-dimethyl-1-(5-hydroxyhexyl)-8-N-methylaminoxanthine]",24.7
4,"C[C@@H](O)CCCCn1c(=O)c2nn(C)nc2n(C)c1=O [CT12465, (R)-3,8-Dimethyl-1-(5-hydroxyhexyl)-8-azaxanthine]",15
5,"CNCc1nc2c([nH]1)c(=O)n(CCCC[C@@H](C)O)c(=O)n2C [CT12441, (R)-1-(5-hydroxyhexyl)-3-methyl-8-(N-methyl)aminomethylxanthine]",19
6,"Cc1cn(C)c2c1c(=O)n(CCCC[C@@H](C)O)c(=O)n2C [CT12458, (R)-3-(5-Hydroxyhexyl)-1,7,9-dimethyl-2,4-pyrrolo[2,3-d]pyrimidinedione]",27
7,"Cc1nc2c(c(=O)n(CCCC[C@@H](C)O)c(=O)n2C)n1Cc1ccccc1 [CT12407, (R)-1-(5-hydroxyhexyl)-7-benzyl-3,8-dimethylxanthine]",30
8,"C[C@H](O)CCCCn1c(=O)c2c(nnn2C)n(C)c1=O [CT22464, (S)-3,7-Dimethyl-1-(5-hydroxyhexyl)-8-azaxanthine]",30
9,"C[C@@H](O)CCCCn1c(=O)c2[nH]nnc2n(C)c1=O [CT12463, (R)-1-(5-Hydroxyhexyl)-3-methyl-8-azaxanthine]",31
10,"C[C@H](O)CCCCn1c(=O)c2c(ncn2Cc2ccccc2)n(C)c1=O [CT22404, (S)-1-(5-Hydroxyhexyl)-7-benzyl-3-methylxanthine]",10
11,"CSc1nc2c([nH]1)c(=O)n(CCCC[C@@H](C)O)c(=O)n2C [CT12490, (R)-1-(5-Hydroxyhexyl)-3-methyl-8-methylsulfanylxanthine]",20
12,"C[C@@H](O)CCCCn1c(=O)c2nsnc2n(C)c1=O [CT12461, (R)-3-(5-hydroxyhexyl)-1-methyl-[1,2,5]thiadiazolo[3,4]pyrimidine-2,4-dione]",17
13,"C[C@@H](O)CCCCn1c(=O)c2c(nc(N(C)C)n2C)n(C)c1=O [CT12485, (R)-3,7-Dimethyl-8-N,N-dimethylamino-1-(5-hydroxyhexyl)-xanthine]",10
14,"C[C@@H](O)CCCCn1c(=O)c2c([nH]c(=O)n2C)n(C)c1=O [CT11499, (R)-1-(5-Hydroxyhexyl)-3,7-dimethyluric acid]",30
15,"C[C@@H](O)CCCCn1c(=O)c2c(nnn2C)n(C)c1=O [CT12464, (R)-3,7-dimethyl-1-(5-hydroxyhexyl)-8-azaxanthine]",12
16,"C[C@H](O)CCCCn1c(=O)c2nn(C)nc2n(C)c1=O [CT22465, (S)-3,8-dimethyl-1-(5-hydroxyhexyl)-8-azaxanthine]",14
17,"C[C@@H](O)CCCCn1c(=O)c2c(ncn2C)n(CCCCCCNC(=O)CCCC[C@@H]2SC[C@@H]3NC(=O)N[C@@H]32)c1=O [CT12460, (R)-3-(6-biotinylamidohexyl)-1-(5-hydroxyhexyl)-7-methylxanthine]",21.8
18,C[C@@H](O)CCCCn1c(=O)c2c(ncn2Cc2ccccc2)n(C)c1=O [CT12404],28
19,C[C@H](CCCCn1c(=O)c2c(ncn2C)n(C)c1=O)OP(=O)(O)O [CT17557],9
20,"Cc1c[nH]c2c1c(=O)n(CCCC[C@@H](C)O)c(=O)n2C [CT12459, (R)-1,9-dimethyl-3-(5-hydroxyhexyl)-2,4-pyrrolo[2,3-d]pyrimidinedione]",17
21,"CC(CCCCn1c(=O)c2c(ncn2C)n(C)c1=O)NO (centres unmarked) [CT7549, 1-(5-(N-Hydroxy)aminohexyl)-3,7-dimethylxanthine]",21
22,"C[C@@H](O)CCCCn1c(=O)c2c(ncn2C)n(Cc2ccco2)c1=O [CT12422, (R)-3-(2-Furylmethyl)-1-(5-hydroxyhexyl)-7-methylxanthine]",19

# System: IL-12 induced IFN-γ secretion
# Experiment: IL-12 induced IFN-γ secretion (interferon gamma induction) assay in splenocyte culture
# Format: cell-based
# Conditions: compound added to a culture of splenocytes; FIG. 1
# Protocol: The ability of IL-12 to induce generation of Th1 cells is aided by IFN-γ, a cytokine which is known to be induced by IL-12 itself. (R)-3-(N-biotinyl-6-aminohexyl)-1-(5-hydroxyhexyl)-7-methylxanthine (CT12460) and (R)-3-(N-biotinyl-2-aminoethyl)-1-(5-hydroxyhexyl)-7-methylxanthine (CT13410) were tested in an interferon gamma (IFN-γ) induction assay as described in Kobayashi, M., et al., “Identification and Purification of Natural Killer Cell Stimulatory Factor (NKSF), A Cytokine with Multiple Biologic Effects on Human Lymphocytes,” J. Exp. Med.U., 170:827-845 (at 829, 830 and 836) (1989). See also, Wolf, S., et al., “Interluekin 12: A Key Modulator of Immune Function,” Stem Cells, 12:154-168 (1994) and Trinchieri, supra.
row,Compound,IL-12 induced IFN-γ secretion
1,"C[C@@H](O)CCCCn1c(=O)c2c(ncn2C)n(CCNC(=O)CCCC[C@@H]2SC[C@@H]3NC(=O)N[C@@H]32)c1=O [CT13410, (R)-3-(6-biotinylamidoethyl)-1-(5-hydroxyhexyl)-7-methylxanthine]",inhibited
2,"C[C@@H](O)CCCCn1c(=O)c2c(ncn2C)n(CCCCCCNC(=O)CCCC[C@@H]2SC[C@@H]3NC(=O)N[C@@H]32)c1=O [CT12460, (R)-3-(6-biotinylamidohexyl)-1-(5-hydroxyhexyl)-7-methylxanthine]",inhibited

# System: adoptive transfer EAE
# Experiment: Adoptive transfer experimental allergic encephalomyelitis (EAE) model
# Format: in vivo, mice
# Conditions: bid, by gavage, first 5 days; vs vehicle only; FIG. 2
# Protocol: An adoptive transfer experimental allergic encephalomyelitis (EAE) model was used, in which the splenic T cells from actively immunized mice were cultured for 4 days in antigen-containing (myelin basic protein) medium. The cells were then transferred to naive recipients, which were then evaluated for clinical changes in motor nerve function in the presence or absence of treatment with LSF or the compound of Example 22 (CT11558). Both compounds were administered on a bid schedule, by gavage, for the first 5 days.
Compound,magnitude of observable clinical deficits (motor nerve function),onset of observable clinical deficits (motor nerve function)
"C[C@H](CCCCn1c(=O)c2c(ncn2C)n(C)c1=O)N(C)C [CT11558, (R)-1-(5-N,N-dimethylaminohexyl)-3,7-dimethylxanthine]",decrease in the magnitude,significant delay in the onset
"C[C@@H](O)CCCCn1c(=O)c2c(ncn2C)n(C)c1=O [LSF, (R)-1-(5-Hydroxyhexyl)-3,7-dimethylxanthine, reference compound]",decrease in the magnitude,significant delay in the onset

# System: GVHD
# Experiment: Graft-versus-host disease (GVHD) model
# Format: in vivo
# Conditions: bid, by gavage, first 5 days; assessed over 36 days after adoptive transfer of cells; vs vehicle control; FIG. 3
# Protocol: In a GVHD model, an irradiated F1 hybrid recipient population, bred across a parental major H2 mismatch, was infused with maternal cells activated in vitro with conconavalian A (Con A) and IL-12. LSF and the compound of Example 7 (CT12441) were compared with a vehicle control for efficacy. Both compounds were administered on a bid schedule, by gavage, for the first 5 days.
row,Compound,survival
1,"CNCc1nc2c([nH]1)c(=O)n(CCCC[C@@H](C)O)c(=O)n2C [CT12441, (R)-1-(5-hydroxyhexyl)-3-methyl-8-(N-methyl)aminomethylxanthine]",significant increase of survival
2,"C[C@@H](O)CCCCn1c(=O)c2c(ncn2C)n(C)c1=O [LSF, (R)-1-(5-Hydroxyhexyl)-3,7-dimethylxanthine, reference compound]",significant increase of survival
